These results are taken from patent publication US4091213A, “7-Cyclizedamino-3-heterothiomethyl cephalosporin derivatives” (Bristol-Myers Company, priority 1977, dated 1978).

Data set [1] can be described thus: Liquid chromatography, hydrolysis in buffer. In kind it is physicochemical. Particulars: pH 6 buffer; 1 mg./ml.; 0 hours. The procedure:
f. Liquid chromatography = 100% hydrolyzed in pH 6.1 buffer within 1 hour at room temperature (concentration = 1 mg./ml.)
d. Liquid chromatography (1 mg./ml. in pH 6 buffer)

Data set [2] can be described thus: Paper strip chromatography. Format: physicochemical. Particulars: 37° C.; 0 and 1 hour; 0.2 mg./ml.
The nature of data set [3]: Paper chromatograms of rat urine following IM administration, antibiotically active metabolites. In kind it is in vivo. Particulars: urine 0-2 and 2-4 hours; for antibiotically active metabolites in urine (spots on paper chromatogram): system No. 9 (butyl acetate:n-butanol:glacial acetic acid:H2O). The procedure: Paper chromatograms were run on rat urine collected between 0 and 2 and between 2 and 4 hours following IM administration of BL-S1057, 1058 and 643, for the detection of antibiotically active metabolites using descending chromatography with system No. 9 (butyl acetate:n-butanol:glacial acetic acid:H2 O = 80:15:40:24).

`Cc1nnc(SCC2=C(C(=O)O)N3C(=O)C(N4C(=O)[C@@H](c5ccc(O)cc5)NC4c4ccc(S(=O)(=O)O)o4)C3SC2)s1` (some centres unmarked) [BL-S1058]: the “% Hydrolyzed (liquid chromatography)” value in data set [1] amounted to 25.4%. The Paper strip chromatography result in data set [2] was “Primarily 1 zone at Rf of BL-S643 at 0 and 1 hour at 37 °C (concentration is 0.2 mg./ml.) There is evidence of a second zone”. Besides, in data set [3], the “hydrolysis of the derivatives to the parent compound (BL-S643)” value is reported as “complete hydrolysis” and the “antibiotically active metabolites in urine (spots on paper chromatogram)” value (from here on “antibiotically active metabolites”) is on record as “A single, identical spot was observed”.
With `Cc1nnc(SCC2=C(C(=O)O)N3C(=O)C(N4C(=O)[C@@H](c5ccc(O)cc5)NC4c4ccco4)C3SC2)s1` (some centres unmarked) [BL-S1057], the Paper strip chromatography entry in data set [2] is reported as “Primarily 1 zone at Rf of BL-S643”. In data set [3], the “hydrolysis of the derivatives to the parent compound (BL-S643)” value is “complete hydrolysis” and the “antibiotically active metabolites” value was “A single, identical spot was observed”.
Regarding `Cc1nnc(SCC2=C(C(=O)O)N3C(=O)C(NC(=O)[C@H](N)c4ccc(O)cc4)C3SC2)s1` (some centres unmarked) [BL-S643, reference compound], in data set [3], the “antibiotically active metabolites” value was “A single, identical spot was observed”.
